In the supplement of paper PMC11451515:

What was measured:
Settings in all cases: 48 h
[1] = test system: NOMO1; experiment: cell viability relative to DMSO control; higher = less cytotoxic
Summary of the method: (§1)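 Library compounds in DMSO were pin-dosed into 1536-well plates (5 μl) holding NOMO1 or SEM (500 cells/well) or P12-Ichikawa (1000 cells/well) leukemia cells, across an 11-point threefold series of 47 μM to 0.79 nM. Each cell line had been adapted for at least four passages in each medium. CellTiter-Glo One luminescence was read after 48 h at 37°C. Viability is the per-plate percentage relative to DMSO wells, with cell-free wells as background.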

[2] = test system: P12-Ichikawa; experiment: as above
Summary of the method: as §1

[3] = test system: SEM cells; experiment: as above
Summary of the method: as §1

[4] = test system: NOMO1; experiment: AUC of viability dose-response curve (% viability x log10 dose units); higher = less sensitive
Summary of the method: (§2)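 Viability of medium-adapted leukemia cells was measured by CellTiter-Glo One luminescence after 48 h at 37°C with library compounds in DMSO. Doses were 11 threefold steps from 47 μM to 0.79 nM, in 1536-well plates at 500 or 1000 cells/well. Signals were normalised per plate to DMSO and cell-free wells and fitted with a four-parameter log-logistic model on log10 dose. Area under the curve was integrated by trapezoidal rule, with curves exceeding full viability scaled and failed quality-control curves removed.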

[5] = test system: P12-Ichikawa; experiment: as above
Summary of the method: as §2

[6] = test system: SEM cells; experiment: as above
Summary of the method: as §2

[7] = HPLM + 10% dialyzed FBS, 0.000781 µM
[8] = HPLM + 10% dialyzed FBS, 0.00234 µM
[9] = HPLM + 10% dialyzed FBS, 0.00702 µM
[10] = HPLM + 10% dialyzed FBS, 0.0211 µM
[11] = HPLM + 10% dialyzed FBS, 0.0632 µM
[12] = HPLM + 10% dialyzed FBS, 0.19 µM
[13] = HPLM + 10% dialyzed FBS, 0.569 µM
[14] = HPLM + 10% dialyzed FBS, 1.71 µM
[15] = HPLM + 10% dialyzed FBS, 5.12 µM
[16] = HPLM + 10% dialyzed FBS, 15.4 µM
[17] = HPLM + 10% dialyzed FBS, 46.1 µM
[18] = RPMI 5 mM glucose + 10% FBS, 0.000781 µM
[19] = RPMI 5 mM glucose + 10% FBS, 0.00234 µM
[20] = RPMI 5 mM glucose + 10% FBS, 0.00702 µM
[21] = RPMI 5 mM glucose + 10% FBS, 0.0211 µM
[22] = RPMI 5 mM glucose + 10% FBS, 0.0632 µM
[23] = RPMI 5 mM glucose + 10% FBS, 0.19 µM
[24] = RPMI 5 mM glucose + 10% FBS, 0.569 µM
[25] = RPMI 5 mM glucose + 10% FBS, 1.71 µM
[26] = RPMI 5 mM glucose + 10% FBS, 5.12 µM
[27] = RPMI 5 mM glucose + 10% FBS, 15.4 µM
[28] = RPMI 5 mM glucose + 10% FBS, 46.1 µM
[29] = RPMI 5 mM glucose + 10% dialyzed FBS, 0.000781 µM
[30] = RPMI 5 mM glucose + 10% dialyzed FBS, 0.00234 µM
[31] = RPMI 5 mM glucose + 10% dialyzed FBS, 0.00702 µM
[32] = RPMI 5 mM glucose + 10% dialyzed FBS, 0.0211 µM
[33] = RPMI 5 mM glucose + 10% dialyzed FBS, 0.0632 µM
[34] = RPMI 5 mM glucose + 10% dialyzed FBS, 0.19 µM
[35] = RPMI 5 mM glucose + 10% dialyzed FBS, 0.569 µM
[36] = RPMI 5 mM glucose + 10% dialyzed FBS, 1.71 µM
[37] = RPMI 5 mM glucose + 10% dialyzed FBS, 5.12 µM
[38] = RPMI 5 mM glucose + 10% dialyzed FBS, 15.4 µM
[39] = RPMI 5 mM glucose + 10% dialyzed FBS, 46.1 µM
[40] = RPMI 5 mM glucose + 10% dialyzed FBS

`COc1cc2ncn(-c3cc(OCc4ccccc4[S+](C)(=O)[O-])c(C#N)s3)c2cc1OC` gave a cell viability [1, 7] of 101%, a cell viability [1, 8] of 91% and a cell viability [1, 9] of 105%. The cell viability [1, 10] was 101%, the cell viability [1, 11] was 84% and the cell viability [1, 12] was 108%. It also gave a cell viability [1, 13] of 92.8%, a cell viability [1, 14] of 95.8% and a cell viability [1, 15] of 82.7%. The cell viability [1, 16] was 81.2%, the cell viability [1, 17] was 68.9% and the cell viability [1, 18] was 90.9%. For the same compound, the cell viability [1, 19] was 89.9%, the cell viability [1, 20] was 97% and the cell viability [1, 21] was 84.6%. For the same compound, the cell viability [1, 22] was 99.7%, the cell viability [1, 23] was 97% and the cell viability [1, 24] was 103%. The cell viability [1, 25] was 88.8%, the cell viability [1, 26] was 82.1% and the cell viability [1, 27] was 90.4%. For the same compound, the cell viability [1, 28] was 73.8%, the cell viability [1, 29] was 107% and the cell viability [1, 30] was 98.6%. The cell viability [1, 31] was 100%, the cell viability [1, 32] was 100% and the cell viability [1, 33] was 90.8%. For the same compound, the cell viability [1, 34] was 98.7%, the cell viability [1, 35] was 95.3% and the cell viability [1, 36] was 101%. For the same compound, the cell viability [1, 37] was 89.4%, the cell viability [1, 38] was 94.8% and the cell viability [1, 39] was 62%. The cell viability [2, 7] was 101%, the cell viability [2, 8] was 100% and the cell viability [2, 9] was 93.8%. The cell viability [2, 10] was 94%, the cell viability [2, 11] was 102% and the cell viability [2, 12] was 95.2%. The cell viability [2, 13] was 96.7%, the cell viability [2, 14] was 94.1% and the cell viability [2, 15] was 84.5%. For the same compound, the cell viability [2, 16] was 92%, the cell viability [2, 17] was 77.5% and the cell viability [2, 18] was 96.3%. It also gave a cell viability [2, 19] of 99%, a cell viability [2, 20] of 96.8% and a cell viability [2, 21] of 97.8%. For the same compound, the cell viability [2, 22] was 100%, the cell viability [2, 23] was 95.3% and the cell viability [2, 24] was 94.4%. The cell viability [2, 25] was 89.7%, the cell viability [2, 26] was 88.7% and the cell viability [2, 27] was 91.3%. The cell viability [2, 28] was 87.6%, the cell viability [2, 29] was 90.1% and the cell viability [2, 30] was 92.3%. For the same compound, the cell viability [2, 31] was 87.7%, the cell viability [2, 32] was 94.9% and the cell viability [2, 33] was 94.8%. It also gave a cell viability [2, 34] of 98%, a cell viability [2, 35] of 95.4% and a cell viability [2, 36] of 92.5%. The cell viability [2, 37] was 82.7%, the cell viability [2, 38] was 80% and the cell viability [2, 39] was 73.6%. It also gave a cell viability [3, 7] of 102%, a cell viability [3, 8] of 102% and a cell viability [3, 9] of 90.9%. The cell viability [3, 10] was 105%, the cell viability [3, 11] was 95.1% and the cell viability [3, 12] was 98.3%. The cell viability [3, 13] was 98.3%, the cell viability [3, 14] was 103% and the cell viability [3, 15] was 78.5%. For the same compound, the cell viability [3, 16] was 95.7%, the cell viability [3, 17] was 82.4% and the cell viability [3, 18] was 114%. For the same compound, the cell viability [3, 19] was 110%, the cell viability [3, 20] was 100% and the cell viability [3, 21] was 124%. For the same compound, the cell viability [3, 22] was 121%, the cell viability [3, 23] was 110% and the cell viability [3, 24] was 108%. For the same compound, the cell viability [3, 25] was 107%, the cell viability [3, 26] was 94.4% and the cell viability [3, 27] was 122%. It also gave a cell viability [3, 28] of 93.4%, a cell viability [3, 29] of 92.4% and a cell viability [3, 30] of 107%. The cell viability [3, 31] was 89.1%, the cell viability [3, 32] was 103% and the cell viability [3, 33] was 98.9%. For the same compound, the cell viability [3, 34] was 110%, the cell viability [3, 35] was 112% and the cell viability [3, 36] was 101%. The cell viability [3, 37] was 106%, the cell viability [3, 38] was 98.7% and the cell viability [3, 39] was 78.9%. The “AUC of viability dose-response curve” value ([4]; HPLM + 10% dialyzed FBS) was 443, the “AUC of viability dose-response curve” value ([4]; RPMI 5 mM glucose + 10% FBS) was 435 and the “AUC of viability dose-response curve” value [4, 40] was 457. For the same compound, the “AUC of viability dose-response curve” value ([5]; HPLM + 10% dialyzed FBS) was 450, the “AUC of viability dose-response curve” value ([5]; RPMI 5 mM glucose + 10% FBS) was 450 and the “AUC of viability dose-response curve” value [5, 40] was 428. The “AUC of viability dose-response curve” value ([6]; HPLM + 10% dialyzed FBS) was 457, the “AUC of viability dose-response curve” value ([6]; RPMI 5 mM glucose + 10% FBS) was 461 and the “AUC of viability dose-response curve” value [6, 40] was 470.
